The record followed here is patent publication US4839358A, “Alpha-mercaptomethyl-benzene propanamides, pharmaceutical compositions and use” (Roussel Uclaf, priority 1987, dated 1989).

Experiment [1] in a line: Analgesic activity: Stretching Caused by Acetic Acid in Mice. The class given is in vivo. The settings on record: Mus musculus, 0.5 h; oral, half-an-hour before 1% acetic acid 10 ml/kg intraperitoneal; 15 minutes observation; read-out: AD50 (active dose which enabled a reduction of 50% of the number of stretchings as compared with control animals). On the procedure:
The test used was based on the fact reported by R. KOSTER et al [Fed. Proc. (1959), Vol. 18, p. 412] in which the intraperitoneal injection of acetic acid caused in mice repeated stretching and twisting movements which can persist for more than 6 hours. The analgesics prevent or diminish this syndrome which can be considered as the exteriorization of a diffuse abdominal pain. A 1% solution of acetic acid in water was used, administered at a rate of 10 ml/kg. The product studied was administered by oral route half-an-hour before injection of the acetic acid, the mice being without food for a minimum 6 hours. The stretchings were observed and counted for each mouse for an observation period of 15 minutes. The results were expressed as the AD50, that is to say, the active dose which enabled a reduction of 50% of the number of stretchings as compared with control animals. The AD50 found for the compound of Example 2 was 80 mg/kg.

Experiment [2] can be described thus: Test of Anti-depressive Activity (duration of immobility, forced swimming). It is filed as in vivo, Sprague Dawley rats. Particulars: 20 mg/kg × 3, oral 24, 5 and 1 hour before test. On the procedure:
The tests were carried out on groups of 5 Sprague Dawley rats and the inexperienced animals were placed for 15 minutes in a vertical perspex cylinder (diameter: 18 cm, height: 40 cm) containing water at 25° C. to a height of 15 cm (initial swimming test). They were then dried for 15 minutes in an enclosure heated to 32° C. 24 hours later, they were replaced in the cylinder filled with water and the total duration of immobility was measured for 5 minutes. The compound was administered orally successively 24, 5 and 1 hour before the test. The first administration took place immediately after the initial swimming test, just before replacing the animals in their breeding box. The average of the groups treated were compared with those of the control group by the Dunnett test.

For experiment [3], the target named is T1, Enkephalinase (Rattus norvegicus, UniProt P07861).
T1 construct: from tissue; host or cells: rat kidney membranes (15,000 g particulate fraction, solubilised with octyl beta-D-glucopyranoside, 100,000 g supernatant)
T1 sequence (P07861 1-750): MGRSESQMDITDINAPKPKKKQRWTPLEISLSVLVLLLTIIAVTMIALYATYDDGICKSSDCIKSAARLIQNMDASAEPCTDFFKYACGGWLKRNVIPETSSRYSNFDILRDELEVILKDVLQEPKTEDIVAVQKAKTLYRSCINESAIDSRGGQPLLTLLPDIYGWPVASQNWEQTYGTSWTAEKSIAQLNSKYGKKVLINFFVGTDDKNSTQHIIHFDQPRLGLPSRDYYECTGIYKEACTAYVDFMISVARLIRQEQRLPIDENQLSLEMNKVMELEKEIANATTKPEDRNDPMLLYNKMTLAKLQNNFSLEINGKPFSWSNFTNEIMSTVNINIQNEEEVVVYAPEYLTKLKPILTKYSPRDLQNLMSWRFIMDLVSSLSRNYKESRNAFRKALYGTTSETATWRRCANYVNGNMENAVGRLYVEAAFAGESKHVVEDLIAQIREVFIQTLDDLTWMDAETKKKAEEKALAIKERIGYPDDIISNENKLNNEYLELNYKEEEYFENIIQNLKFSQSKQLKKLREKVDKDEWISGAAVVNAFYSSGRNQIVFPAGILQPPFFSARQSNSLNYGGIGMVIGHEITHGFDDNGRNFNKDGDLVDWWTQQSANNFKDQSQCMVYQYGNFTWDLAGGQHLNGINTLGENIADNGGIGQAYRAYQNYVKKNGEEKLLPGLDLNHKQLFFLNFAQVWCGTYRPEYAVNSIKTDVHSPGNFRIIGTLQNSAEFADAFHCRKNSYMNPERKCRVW
Description: Determination of the Inhibiting Effect of Enkephalinase (hydrolysis of succinyl-Ala-Ala-Phe-amino-methylcoumarine, fluorescence). The class given is biochemical. The settings on record: rat renal membrane; substrate 40 μM; pH 7.5; 37° C., 30 minutes; read-out: IC50 (concentration which inhibits the hydrolysis of the substrate by 50%). On the procedure:
The activity of enkephalinase was determined starting with a piece of renal membrane of a rat. The kidneys were removed on ice and homogenized in HEPES 0.05M buffer pH 7.5 containing magnesium chloride (50 times the volume). After a first centrifuging at 1,500 g, the particular fraction was obtained after centrifuging at 15,000 g for 20 minutes. The residue was then washed and suspended in HEPES buffer and kept at -20 C. A part of this membrane preparation was placed in the presence of octyl β-D-glucopyranoside (50 mM in final centrifuging) for 15 minutes 15 4° C. After centrifuging at 100,000 g for one hour, the supernatant was removed and frozen by aliquots at -20° C. The concentration in proteins was determined by the method with Comassie blue.
An aliquot of the protein fraction so prepared was pre-incubated at 25° C. for 10 minutes in HEPES 0.05M buffer pH 7.5 or in the presence of the test product. The substrate added was a non-natural enkephaline of the formula succinyl-Ala-Ala-Phe-amino-methylcoumarine (reference 1) (40 μM in final concentration): the incubation was continued at 37° C. for 30 minutes. The reaction was stopped by heating to 95° C. for 5 minutes and each incubate was centrifuged. A solution of aminopeptidase M (4 μM in final concentration) and of thiorphan (reference 2) (10^-5 M) was added to the supernatant and the mixture was taken to 37° C. for one hour. The reaction was stopped as previously described and the fluorescence of the 7-aminomethylcoumarineso produced was determined. The effect of the products under test was detemined by calculating the IC50 as the concentration which inhibits the hydrolysis of the substrate by 50%.

Take `O=C(NN1CCOCC1)C(CS)Cc1ccccc1` (stereo not drawn) [Example 2, α-mercaptomethyl-N-(4-morpholinyl)-benzene propanamide]: the ED50 in experiment [1] was determined as 80 mg/kg. Besides, the “Duration of immobility” value in experiment [2] (5 minutes measured, control 232 ± 7) turned out to be 138 ± 20 s. Also, the “Duration of immobility, % variation” value in experiment [2] (versus control group) is reported as -41%. The IC50 in experiment [3] worked out at 220 nM.
With `O=C(NN1CCCCCC1)C(CS)Cc1ccccc1` (stereo not drawn) [Example 8, N-(hexahydro-1H-azepinyl)-α-(mercaptomethyl)-benzene propanamide], the IC50 in experiment [3] was 390 nM.
On the same count and under the same terms, the same measure for `O=C(NN1CCCC1)C(CS)Cc1ccccc1` (stereo not drawn) [Example 10, α-mercaptomethyl-N-(1-pyrrolidinyl)-benzene propanamide]: 71 nM; for `O=C(NN1CCSCC1)C(CS)Cc1ccccc1` (stereo not drawn) [Example 12, α-mercaptomethyl-N-(tetrahydro-2H-1,4,-thiazin-4-yl)-benzene propanamide]: 350 nM.
